Data reported in ChEMBL document CHEMBL1201862, “PubChem BioAssay data set” (2004).
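Tested at 5 concentrations; 48 h exposure; 96-well plates; endpoints linearly interpolated, else capped at highest concentration. Here, GI50 denotes the concentration required for 50% inhibition of growth.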 The source made the active and inactive calls. No stated cut-off is given here; in the data, active = GI50 up to about 1.1 µM and inactive = higher.

Experiments:
Test in all cases: growth of human tumour cells (NCI), 48 h
[1] = tested on: 786-0
[2] = tested on: A498
[3] = tested on: A549
[4] = tested on: ACHN
[5] = tested on: BT-549
[6] = tested on: CAKI-1
[7] = tested on: CCRF-CEM
[8] = tested on: COLO 205
[9] = tested on: DU-145
[10] = tested on: EKVX
[11] = tested on: HCC 2998
[12] = tested on: HCT-116
[13] = tested on: HCT-15
[14] = tested on: HL-60
[15] = tested on: HOP-62
[16] = tested on: HOP-92
[17] = tested on: HT-29
[18] = tested on: Hs-578T
[19] = tested on: IGROV-1
[20] = tested on: K562
[21] = tested on: KM12
[22] = tested on: LOX IMVI
[23] = tested on: M14
[24] = tested on: MCF7
[25] = tested on: MDA-MB-231
[26] = tested on: MDA-MB-435
[27] = tested on: MDA-N
[28] = tested on: MOLT-4
[29] = tested on: Malme-3M
[30] = tested on: NCI-H226
[31] = tested on: NCI-H23
[32] = tested on: NCI-H460
[33] = tested on: NCI-H522
[34] = tested on: NCI/ADR-RES
[35] = tested on: OVCAR-3
[36] = tested on: OVCAR-5
[37] = tested on: OVCAR-8
[38] = tested on: PC-3
[39] = tested on: RPMI-8226
[40] = tested on: RXF 393
[41] = tested on: SF-268
[42] = tested on: SF-295
[43] = tested on: SF-539
[44] = tested on: SK-MEL-28
[45] = tested on: SK-MEL-2
[46] = tested on: SK-MEL-5
[47] = tested on: SK-OV-3
[48] = tested on: SN12C
[49] = tested on: SNB-19
[50] = tested on: SNB-75
[51] = tested on: SR
[52] = tested on: SW-620
[53] = tested on: T47D
[54] = tested on: U-251
[55] = tested on: UACC-257
[56] = tested on: UACC-62
[57] = tested on: UO-31
[58] = tested on: OVCAR-4
[59] = tested on: TK-10

CN(C)c1ccc(/C=C(\NC(=O)c2ccccc2)C(=O)Nc2ccccc2C(=O)NN2C(=O)CSC2c2ccc(N(C)C)cc2)cc1 (stereo not drawn)
GI50 [1]: 80.2 µM (inactive)
GI50 [2]: > 100 µM (inactive)
GI50 [3]: > 100 µM (inactive)
GI50 [4]: > 100 µM (inactive)
GI50 [5]: > 100 µM (inactive)
GI50 [6]: > 100 µM (inactive)
GI50 [7]: > 100 µM (inactive)
GI50 [8]: > 100 µM (inactive)
GI50 [9]: > 100 µM (inactive)
GI50 [10]: > 100 µM (inactive)
GI50 [11]: 6.37 µM (inactive)
GI50 [12]: > 100 µM (inactive)
GI50 [13]: 92.7 µM
GI50 [14]: > 100 µM (inactive)
GI50 [15]: 93.1 µM (inactive)
GI50 [16]: > 100 µM (inactive)
GI50 [17]: > 100 µM (inactive)
GI50 [18]: > 100 µM (inactive)
GI50 [19]: > 100 µM (inactive)
GI50 [20]: 33.3 µM (inactive)
GI50 [21]: > 100 µM (inactive)
GI50 [22]: > 100 µM (inactive)
GI50 [23]: > 100 µM (inactive)
GI50 [24]: > 100 µM (inactive)
GI50 [25]: > 100 µM (inactive)
GI50 [26]: 66.5 µM (inactive)
GI50 [27]: > 100 µM (inactive)
GI50 [28]: > 100 µM (inactive)
GI50 [29]: > 100 µM (inactive)
GI50 [30]: > 100 µM (inactive)
GI50 [31]: > 100 µM (inactive)
GI50 [32]: 10.7 µM (inactive)
GI50 [33]: 40.6 µM (inactive)
GI50 [34]: > 100 µM (inactive)
GI50 [35]: > 100 µM (inactive)
GI50 [36]: > 100 µM (inactive)
GI50 [37]: > 100 µM (inactive)
GI50 [38]: > 100 µM (inactive)
GI50 [39]: > 100 µM (inactive)
GI50 [40]: 86.3 µM (inactive)
GI50 [41]: > 100 µM (inactive)
GI50 [42]: > 100 µM (inactive)
GI50 [43]: 79.8 µM (inactive)
GI50 [44]: > 100 µM (inactive)
GI50 [45]: > 100 µM (inactive)
GI50 [46]: 94.6 µM (inactive)
GI50 [47]: > 100 µM (inactive)
GI50 [48]: > 100 µM (inactive)
GI50 [49]: > 100 µM (inactive)
GI50 [50]: > 100 µM (inactive)
GI50 [51]: > 100 µM (inactive)
GI50 [52]: > 100 µM (inactive)
GI50 [53]: > 100 µM (inactive)
GI50 [54]: > 100 µM (inactive)
GI50 [55]: 16.1 µM (inactive)
GI50 [56]: > 100 µM (inactive)
GI50 [57]: > 100 µM (inactive)

CCc1n[nH]c(=O)n1-c1ccncc1
GI50 [1]: > 100 µM (inactive)
GI50 [2]: > 100 µM (inactive)
GI50 [3]: > 100 µM (inactive)
GI50 [4]: > 100 µM (inactive)
GI50 [5]: > 100 µM (inactive)
GI50 [6]: > 100 µM (inactive)
GI50 [7]: > 100 µM (inactive)
GI50 [8]: > 100 µM (inactive)
GI50 [9]: > 100 µM (inactive)
GI50 [10]: > 100 µM (inactive)
GI50 [11]: > 100 µM (inactive)
GI50 [12]: > 100 µM (inactive)
GI50 [13]: > 100 µM
GI50 [14]: > 100 µM (inactive)
GI50 [15]: > 100 µM (inactive)
GI50 [16]: > 100 µM (inactive)
GI50 [17]: > 100 µM (inactive)
GI50 [18]: > 100 µM (inactive)
GI50 [19]: > 100 µM (inactive)
GI50 [20]: > 100 µM (inactive)
GI50 [21]: > 100 µM (inactive)
GI50 [22]: > 100 µM (inactive)
GI50 [23]: > 100 µM (inactive)
GI50 [24]: > 100 µM (inactive)
GI50 [25]: > 100 µM (inactive)
GI50 [26]: > 100 µM (inactive)
GI50 [27]: > 100 µM (inactive)
GI50 [28]: > 100 µM (inactive)
GI50 [29]: > 100 µM (inactive)
GI50 [30]: > 100 µM (inactive)
GI50 [31]: > 100 µM (inactive)
GI50 [32]: > 100 µM (inactive)
GI50 [33]: > 100 µM (inactive)
GI50 [34]: > 100 µM (inactive)
GI50 [35]: > 100 µM (inactive)
GI50 [58]: > 100 µM (inactive)
GI50 [36]: > 100 µM (inactive)
GI50 [37]: > 100 µM (inactive)
GI50 [38]: > 100 µM (inactive)
GI50 [39]: > 100 µM (inactive)
GI50 [40]: > 100 µM (inactive)
GI50 [41]: > 100 µM (inactive)
GI50 [42]: > 100 µM (inactive)
GI50 [43]: > 100 µM (inactive)
GI50 [44]: > 100 µM (inactive)
GI50 [46]: > 100 µM (inactive)
GI50 [48]: > 100 µM (inactive)
GI50 [49]: > 100 µM (inactive)
GI50 [50]: > 100 µM (inactive)
GI50 [51]: > 100 µM (inactive)
GI50 [52]: > 100 µM (inactive)
GI50 [53]: > 100 µM (inactive)
GI50 [59]: > 100 µM (inactive)
GI50 [54]: > 100 µM (inactive)
GI50 [55]: > 100 µM (inactive)
GI50 [57]: > 100 µM (inactive)
